{
  "source": "patent US8080404B1",
  "about": "“Enzymatic decontamination” (priority 2005, dated 2011)",
  "test_system": "Bacillus anthracis NNR1Δ1 spores",
  "format": "cell-based",
  "data": [
    {"compound": "CCCCCCCCCCCC[N+](C)(C)CCCS(=O)(=O)[O-]", "note": "[3-(dodecyldimethylamino) propane sulfonate]", "values": [
      {"measurement": "promotion of spore killing by zwitterionic surfactant", "value": "most efficient at promoting spore killing"}
    ]},
    {"compound": "CC(=O)Oc1ccccc1C(=O)O", "note": "[acetylsalicylic acid]", "values": [
      {"measurement": "efficiency of spore killing with acetyl donor", "value": "increasing concentrations of acetylsalicylic acid resulted in increased efficiency of spore killing"}
    ]},
    {"compound": "CC(=O)O", "note": "[acetic acid]", "values": [
      {"measurement": "kill rate with acetyl donor", "value": "enhanced the kill rate to about the same degree as did 0.125% acetylsalicylic acid"}
    ]},
    {"compound": "octyl phenol ethoxylate [triton X-100]", "values": [
      {"measurement": "spore kill efficiency with surfactant", "value": "most efficient formulation for spore inactivation"}
    ]}
  ]
}
